Measurements published in patent publication US6436945B2, “Substituted O6-benzyl-8-aza-guanines” (The United States of America as represented by the of …, priority 1994, dated 2002).
Substitutions are numbered along the chain they refer to.

Key:
[1] = target: T1, O^6-alkylguanine-DNA alkyltransferase (AGT) (Homo sapiens, UniProt P16455); assay: AGT inactivation in intact HT29 cells; conditions: for ratio of ED50 values in cell-free extracts/intact cells: HT29; for AGT inactivating activity in intact HT29 cells, in words: comparison
T1 sequence (P16455 1-207): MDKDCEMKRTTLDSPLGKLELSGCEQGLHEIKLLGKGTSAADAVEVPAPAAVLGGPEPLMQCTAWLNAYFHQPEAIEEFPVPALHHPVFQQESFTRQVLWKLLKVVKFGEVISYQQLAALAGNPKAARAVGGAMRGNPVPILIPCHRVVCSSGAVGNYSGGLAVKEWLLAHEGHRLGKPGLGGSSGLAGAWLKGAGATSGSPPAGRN
Procedure: (§1) The data represent the dose of compound required to produce 50% inactivation in cell-free extracts upon incubation for 30 min or in cells upon incubation for 4 hr.

HT-29 colon cancer cells = assay: Killing of HT-29 colon cancer cells by BCNU combined with AGT inactivators (colony formation); conditions: for enhancement of BCNU cytotoxicity, in words: statement covers HT29, DU-145 and MCF-71 cells (Tables 3-5); for Colony Formation per 1000 cells: HT-29
Procedure: (§2) Cells were treated for 2 h with AGT inactivator prior to exposure to BCNU.

[2] = target: T1, O^6-alkylguanine-DNA alkyltransferase (AGT); assay: AGT inactivation in HT29 cell-free extract
Procedure: as §1

[3] = tested on: DU-145 prostate cancer cells; assay: Killing of DU-145 prostate cancer cells by BCNU combined with AGT inactivators (colony formation)
Procedure: as §2

[4] = tested on: MCF-71 breast cancer cells; assay: Killing of MCF-71 breast cancer cells by BCNU combined with AGT inactivators (colony formation)
Procedure: as §2

[5] = Behaviour in solution at pH 13 (noted with UV spectra); format: physicochemical
purified human AGT = target: T2, purified human AGT (Homo sapiens, UniProt P16455); assay: Inactivation of purified human AGT; format: biochemical; conditions: Table 2 footnotes; read-out: ED50 with purified human AGT
T2 sequence (P16455 1-207): T1 sequence (P16455 1-207)

mutant alkyltransferase = assay: Inactivation of mutant (resistant) alkyltransferase, overall statements; format: biochemical, human; conditions: intracellular concentration, extrapolated from Table 6
alkyltransferase G156A = target: T3, alkyltransferase G156A (Homo sapiens, UniProt P16455, G156A); assay: Inhibition of mutant alkyltransferase proteins, G156A; format: biochemical; conditions: G156A versus control protein
T3 construct: made in house
T3 sequence (P16455 1-207 G156A): T1 sequence (P16455 1-207) with G156A

[6] = target: T4, alkyltransferase P138A/P140A (Homo sapiens, UniProt P16455, P138A/P140A); assay: Inhibition of mutant alkyltransferase proteins, P138A/P140A; format: biochemical; conditions: P138A/P140A versus control protein
T4 construct: made in house
T4 sequence (P16455 1-207 P138A/P140A): T1 sequence (P16455 1-207) with P138A, P140A

[7] = target: T1, O^6-alkylguanine-DNA alkyltransferase (AGT); parameters: endogenous in cells; host or cells: HT29 human colon tumor cells; conditions: text b35, comparison value of Table 1; cited from earlier work
alkyltransferase P140A = target: T5, alkyltransferase P140A (Homo sapiens, UniProt P16455, P140A); assay: Inhibition of mutant alkyltransferase proteins, P140A; format: biochemical; conditions: P140A versus control protein
T5 construct: made in house
T5 sequence (P16455 1-207 P140A): T1 sequence (P16455 1-207) with P140A

| EC50 [1] | EC50 [2] | melting point | stability at pH 13 [5] | EC50 (purified human AGT) | SMILES | Colony Formation per 1000 cells (HT-29 colon cancer cells; inactivator 1 μM, BCNU 40 μM) | Colony Formation per 1000 cells (HT-29 colon cancer cells; inactivator 10 μM, BCNU 40 μM) | Colony Formation per 1000 cells (HT-29 colon cancer cells; inactivator 10 μM, BCNU none) | Colony Formation per 1000 cells ([3]; inactivator 1 μM, BCNU 40 μM) | Colony Formation per 1000 cells ([3]; inactivator 10 μM, BCNU 40 μM) | Colony Formation per 1000 cells ([3]; inactivator 10 μM, BCNU none) | Colony Formation per 1000 cells ([4]; inactivator 10 μM, BCNU 40 μM) | Colony Formation per 1000 cells ([4]; inactivator 10 μM, BCNU none) | also measured |
| --- | --- | --- | --- | --- | --- | --- | --- | --- | --- | --- | --- | --- | --- | --- |
| 300 nM | 400 nM |  |  |  | Nc1nc(N)c(N)c(OCc2ccccc2)n1 [Compound 3c, 2,4,5-triamino-6-benzyloxypyrimidine] | 487 ± 32 per 1000 cells | 3 ± 1 per 1000 cells | 453 ± 59 per 1000 cells | 378 ± 60 per 1000 cells | 57 ± 7 per 1000 cells | 429 ± 101 per 1000 cells | 12 ± 4 per 1000 cells | 448 ± 55 per 1000 cells | enhancement of BCNU cytotoxicity, in words (HT-29 colon cancer cells; BCNU 40 μM): as effective as the 8-substituted O^6-bezylguanine derivatives and O^6-benzylguanine itself |
| 250 nM | 400 nM | 214 to 216 °C (dec.) |  |  | Nc1nc(OCc2ccccc2)c2nc(C(F)(F)F)[nH]c2n1 [Compound 1e, O^6-Benzyl-8-trifluoromethylguanine] |  |  |  |  |  |  |  |  | ratio of ED50 values in cell-free extracts/intact cells [1]: 1.6 |
| 230 nM | 280 nM | 119 to 120 °C | decomposes to 8-aza-O^6-benzylguanine | 4000 nM | CC(C)(C)C(=O)OCn1nnc2c(OCc3ccccc3)nc(N)nc21 [Compound 8b, 8-Aza-O^6-benzyl-9-(pivaloyloxymethyl)guanine] |  |  |  |  |  |  |  |  |  |
| 300 nM | 9000 nM |  | decomposes to O^6-benzylguanine | > 100000 nM | CC(C)(C)C(=O)OCn1cnc2nc(N)nc(OCc3ccccc3)c21 [Compound 12, O^6-benzyl-7-(pivaloyloxymethyl)guanine] |  |  |  |  |  |  |  |  |  |
| 60 nM | 80 nM |  |  |  | Nc1nc(OCc2ccccc2)c2nc(Br)[nH]c2n1 [Compound 1d, O^6-Benzyl-8-bromoguanine] | 299 ± 30 per 1000 cells | 1 ± 0 per 1000 cells | 401 ± 22 per 1000 cells | 267 ± 39 per 1000 cells | 16 ± 3 per 1000 cells | 493 ± 90 per 1000 cells | 3 ± 1 per 1000 cells | 380 ± 109 per 1000 cells | ratio of ED50 values in cell-free extracts/intact cells [1]: 1.6; AGT inactivating activity in intact HT29 cells, in words [1]: somewhat less active in cells than expected; AGT inactivating activity in HT29 cell-free extracts, in words ([2]; comparison): essentially as active as pyrimidines 3d and 3e; Colony Formation per 1000 cells ([4]; inactivator […], BCNU 40 μM): 4 ± 3 per 1000 cells |
| 60 nM | 70 nM |  |  |  | Nc1nc(OCc2ccccc2)c2nn[nH]c2n1 [Compound 2, 8-Aza-O^6-benzylguanine] | 423 ± 42 per 1000 cells | 2 ± 1 per 1000 cells | 537 ± 48 per 1000 cells | 248 ± 21 per 1000 cells | 28 ± 5 per 1000 cells | 452 ± 72 per 1000 cells | 2 ± 1 per 1000 cells | 483 ± 27 per 1000 cells |  |
|  |  |  |  |  | Nc1nc(OCc2ccccc2)c2nc[nH]c2n1 [O^6-benzylguanine, reference compound] | 277 ± 25 per 1000 cells | 13 ± 6 per 1000 cells | 431 ± 33 per 1000 cells | 299 ± 18 per 1000 cells | 28 ± 5 per 1000 cells | 462 ± 68 per 1000 cells | 4 ± 2 per 1000 cells | 455 ± 63 per 1000 cells | concentration needed to be effective at inactivating resistant alkyltransferase (mutant alkyltransferase): greater than 200 μM; increase in resistance to inactivation (alkyltransferase G156A): 240 fold; Colony Formation per 1000 cells (HT-29 colon cancer cells; inactivator […], BCNU 40 μM): 38 ± 15 per 1000 cells; increase in resistance to inactivation [6]: 88 fold; ED50 value for inactivation of AGT in HT29 cell extracts [7]: 200000 nM; increase in resistance to inactivation (alkyltransferase P140A): 20 fold; Colony Formation per 1000 cells ([4]; inactivator […], BCNU 40 μM): 12 ± 6 per 1000 cells |
| 400 nM | 2500 nM | 86 to 89 °C |  |  | Cn1c(C(F)(F)F)nc2c(OCc3ccccc3)nc(N)nc21 [Compound 7, O^6-Benzyl-8-trifluoromethyl-9-methylguanine] |  |  |  |  |  |  |  |  | ratio of ED50 values in cell-free extracts/intact cells [1]: 6.3; AGT inactivating activity in intact HT29 cells, in words [1]: significantly higher than their activity in cell-free extracts |
| 50 nM | 80 nM | 217 to 218 °C | decomposes to O^6-benzyl-8-bromoguanine | > 100000 nM | CC(C)(C)C(=O)OCn1c(Br)nc2c(OCc3ccccc3)nc(N)nc21 [Compound 10b, O^6-Benzyl-8-bromo-9-(pivaloyloxymethyl)guanine] |  |  |  |  |  |  |  |  |  |
| 100 nM | 300 nM |  |  |  | Cc1nc2c(OCc3ccccc3)nc(N)nc2[nH]1 [Compound 1b, O^6-benzyl-8-methylguanine] | 230 ± 51 per 1000 cells | <1 per 1000 cells | 513 ± 76 per 1000 cells | 306 ± 157 per 1000 cells | 50 ± 7 per 1000 cells | 357 ± 43 per 1000 cells | 2 ± 1 per 1000 cells | 376 ± 76 per 1000 cells |  |
| 2000 nM | 700 nM |  |  |  | Nc1nc(OCc2ccccc2)c2nc(N)[nH]c2n1 [Compound 1a, 8-Amino-O^6-benzylguanine] | 475 ± 26 per 1000 cells | 430 ± 41 per 1000 cells | 504 ± 30 per 1000 cells | 295 ± 45 per 1000 cells | 435 ± 70 per 1000 cells | 380 ± 36 per 1000 cells | 95 ± 8 per 1000 cells | 432 ± 36 per 1000 cells | enhancement of BCNU cytotoxicity, in words (HT-29 colon cancer cells; BCNU 40 μM): comparatively low activity |
| 150 nM | 300 nM |  |  |  | Nc1nc(OCc2ccccc2)c2[nH]c(=O)[nH]c2n1 [Compound 1c, O^6-Benzyl-8-oxoguanine] | 221 ± 15 per 1000 cells | <1 per 1000 cells | 401 ± 22 per 1000 cells | 329 ± 43 per 1000 cells | 34 ± 3 per 1000 cells | 379 ± 34 per 1000 cells | 4 ± 2 per 1000 cells | 522 ± 78 per 1000 cells |  |
| 160 nM | 110 nM | 153 to 154 °C | decomposes to 8-aza-O^6-benzylguanine | 2000 nM | CC(C)(C)C(=O)OCn1nnc2nc(N)nc(OCc3ccccc3)c21 [Compound 9, 8-Aza-O^6-benzyl-7-(pivaloyloxymethyl)guanine] |  |  |  |  |  |  |  |  |  |
